Relative viability data for 4 cell lines are collected here from the supplement of paper PMC10307832.

What all share (assay): relative viability (nuclei count vs DMSO), 5 days (fraction); higher = more cells survive
Compound in experiment [1]: N[C@@H]1CCCN(c2c(/C=C3\SC(=O)NC3=O)cccc2-c2ccccc2)C1 [AZD1208] + CS(=O)(=O)CCNCc1ccc(-c2ccc3ncnc(Nc4ccc(OCc5cccc(F)c5)c(Cl)c4)c3c2)o1 [Lapatinib] (partner 2 µM)
Summed up:
(§1)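 Lung cancer cell lines were pin-tool dosed in 1536-well plates on the day after seeding, with either a lone drug or a fixed anchor-drug dose plus five library-drug doses (not always all listed) in √10 steps. Nuclei were counted on 4× images after 5 days. Relative viability is the ratio of treated-well to vehicle-well nuclei counts, with each value a median of duplicate plates.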

Compound in experiment [2]: CN1CCN(CC1)C2=CC(=C(C=C2)NC3=NC(=C(S3)C(=O)C4=C(C=CC=C4Cl)Cl)N)OC [XMD14-99] + C[C@]1(O)C[C@@H](c2nc(-c3ccc4ccc(-c5ccccc5)nc4c3)c3c(N)nccn32)C1 [Linsitinib] (partner 1 µM)
Summed up:
as §1

Compound in experiment [3]: CN1CCN(CC1)C2=CC(=C(C=C2)NC3=NC(=C(S3)C(=O)C4=C(C=CC=C4Cl)Cl)N)OC [XMD14-99] + Nc1nc2[nH]cc(CCc3ccc(C(=O)N[C@@H](CCC(=O)O)C(=O)O)cc3)c2c(=O)[nH]1 [Pemetrexed] (partner 0.2 µM)
Summed up:
as §1

Compound in experiment [4]: CN1CCN(CC1)C2=CC(=C(C=C2)NC3=NC(=C(S3)C(=O)C4=C(C=CC=C4Cl)Cl)N)OC [XMD14-99] + Cc1nc(Nc2ncc(C(=O)Nc3c(C)cccc3Cl)s2)cc(N2CCN(CCO)CC2)n1 [Dasatinib] (partner 0.075 µM)
The method in brief: as §1

Regarding NCI-H1395, the relative viability worked out at 1.12 in experiment [1] (first compound 0.08 µM); 0.918 in experiment [1] (first compound 0.253 µM); 0.945 in experiment [1] (first compound 0.8 µM); 1.1 in experiment [1] (first compound 2.53 µM); 0.812 in experiment [1] (first compound 8 µM); 1.04 in experiment [2] (first compound 0.08 µM). The relative viability in experiment [2] (first compound 0.8 µM) was 1.02; in experiment [2] (first compound 2.53 µM), 0.955; in experiment [2] (first compound 8 µM), 0.784; in experiment [3] (first compound 0.08 µM), 0.838; in experiment [3] (first compound 0.8 µM) it was 0.953; in experiment [3] (first compound 2.53 µM), 0.904. The relative viability in experiment [3] (first compound 8 µM) worked out at 0.729; in experiment [4] (first compound 0.08 µM) it was 0.391; in experiment [4] (first compound 0.8 µM) it was 0.425; in experiment [4] (first compound 2.53 µM), 0.457; in experiment [4] (first compound 8 µM), 0.363.

As to NCI-H358, the relative viability came to 0.343 in experiment [1] (first compound 0.08 µM); 0.44 in experiment [1] (first compound 0.253 µM); 0.38 in experiment [1] (first compound 0.8 µM); 0.36 in experiment [1] (first compound 2.53 µM); 0.35 in experiment [1] (first compound 8 µM); 0.703 in experiment [2] (first compound 0.08 µM). Moreover, the relative viability in experiment [2] (first compound 0.8 µM) came to 0.673; in experiment [2] (first compound 2.53 µM), 0.557; in experiment [2] (first compound 8 µM), 0.29; in experiment [3] (first compound 0.08 µM), 0.16; in experiment [3] (first compound 0.8 µM), 0.142; in experiment [3] (first compound 2.53 µM) it was 0.178. Further, the relative viability is 0.146 in experiment [3] (first compound 8 µM); 0.157 in experiment [4] (first compound 0.08 µM); 0.175 in experiment [4] (first compound 0.8 µM); 0.151 in experiment [4] (first compound 2.53 µM); 0.141 in experiment [4] (first compound 8 µM).

For the cell line PC-14, the relative viability in experiment [1] (first compound 0.08 µM) was 0.298; in experiment [1] (first compound 0.253 µM), 0.417; in experiment [1] (first compound 0.8 µM), 0.295; in experiment [1] (first compound 2.53 µM) it was 0.327; in experiment [1] (first compound 8 µM) it was 0.317; in experiment [2] (first compound 0.08 µM) it was 1.08. Also, the relative viability in experiment [2] (first compound 0.8 µM) was 0.932; in experiment [2] (first compound 2.53 µM), 0.958; in experiment [2] (first compound 8 µM) it was 0.684; in experiment [3] (first compound 0.08 µM), 0.148; in experiment [3] (first compound 0.8 µM), 0.138; in experiment [3] (first compound 2.53 µM), 0.115. Also, the relative viability is 0.131 in experiment [3] (first compound 8 µM); 0.254 in experiment [4] (first compound 0.08 µM); 0.226 in experiment [4] (first compound 0.8 µM); 0.224 in experiment [4] (first compound 2.53 µM); 0.11 in experiment [4] (first compound 8 µM).

For the cell line CAL-12T, the relative viability stood at 0.634 in experiment [1] (first compound 0.08 µM); 0.771 in experiment [1] (first compound 0.253 µM); 0.6 in experiment [1] (first compound 0.8 µM); 0.695 in experiment [1] (first compound 2.53 µM); 0.588 in experiment [1] (first compound 8 µM); 0.796 in experiment [2] (first compound 0.08 µM). Further, the relative viability in experiment [2] (first compound 0.8 µM) stood at 0.826; in experiment [2] (first compound 2.53 µM), 0.709; in experiment [2] (first compound 8 µM), 0.641; in experiment [3] (first compound 0.08 µM) it was 1.2; in experiment [3] (first compound 0.8 µM), 1.28; in experiment [3] (first compound 2.53 µM), 1.12. The relative viability in experiment [3] (first compound 8 µM) came to 0.885; in experiment [4] (first compound 0.08 µM) it was 0.34; in experiment [4] (first compound 0.8 µM) it was 0.449; in experiment [4] (first compound 2.53 µM), 0.356; in experiment [4] (first compound 8 µM), 0.248.
